Measurements reported in PMC7712541, “Seven New Cytotoxic and Antimicrobial Xanthoquinodins from Jugulospora vestita” (Journal of Fungi, 2020).
≈ marks a conversion by molar mass, not a printed value.

Assays:
[1] = test system: Candida albicans; assay: MIC, antifungal test; type: cell-based; set-up: key to Minimum inhibitory concentration (MIC): –: no inhibition observed under test conditions
Experimental: (§1) Compounds were tested for their antimicrobial activity against […] fungi (Candida albicans, Mucor hiemails, Pichia anomala, Rhodotorula glutinis and Schizosaccharomyces pombe), four different Gram-positive bacteria (Bacillus subtilis, Micrococcus luteus, Mycobacterium smegmatis and Staphylococcus aureus), and three Gram-negative bacteria (Chromobacterium violaceum, Escherichia coli and Pseudomonas aeruginosa), using oxytetracycline as a positive control against Gram-positive and Gram-negative bacteria, while nystatin was used as an antifungal positive control. Besides, cytotoxicities of the compounds against seven mammalian cell lines (human endocervical adenocarcinoma KB 3.1, breast cancer MCF-7, lung cancer A549, ovary cancer SK-OV-3, prostate cancer PC-3, squamous cancer A431, and mouse fibroblasts L929) were determined by the microculture tetrazolium test (MTT) method, using epothilon B as the positive control. Both bioactivity assays were performed following our standard protocols.

[2] = test system: Mucor hiemalis; assay: MIC, antifungal test; type: cell-based; set-up: key to Minimum inhibitory concentration (MIC): –: no inhibition observed under test conditions; details: read-out: Minimum inhibitory concentration (MIC)
Experimental: as §1

[3] = test system: Pichia anomala; assay: MIC, antifungal test; type: cell-based; set-up: key to Minimum inhibitory concentration (MIC): –: no inhibition observed under test conditions
Experimental: as §1

[4] = test system: Rhodotorula glutinis; assay: MIC, antifungal test; type: cell-based; set-up: key to Minimum inhibitory concentration (MIC): –: no inhibition observed under test conditions
Experimental: as §1

[5] = test system: Schizosaccharomyces pombe; assay: MIC, antifungal test; type: cell-based; set-up: key to Minimum inhibitory concentration (MIC): –: no inhibition observed under test conditions
Experimental: as §1

[6] = test system: Bacillus subtilis; assay: MIC, antibacterial test; type: cell-based; details: read-out: Minimum inhibitory concentration (MIC)
Experimental: as §1

[7] = test system: Micrococcus luteus; assay: MIC, antibacterial test; type: cell-based; details: read-out: Minimum inhibitory concentration (MIC)
Experimental: as §1

[8] = test system: Staphylococcus aureus; assay: MIC, antibacterial test; type: cell-based; details: read-out: Minimum inhibitory concentration (MIC)
Experimental: as §1

[9] = test system: Mycobacterium smegmatis; assay: MIC, antibacterial test; type: cell-based; set-up: key: –: no inhibition observed under test conditions
Experimental: as §1

[10] = test system: Chromobacterium violaceum; assay: MIC, antibacterial test; type: cell-based; set-up: key to Minimum inhibitory concentration (MIC): –: no inhibition observed under test conditions
Experimental: as §1

[11] = test system: Escherichia coli; assay: MIC, antibacterial test; type: cell-based; set-up: key to Minimum inhibitory concentration (MIC): –: no inhibition observed under test conditions
Experimental: as §1

[12] = test system: Pseudomonas aeruginosa; assay: MIC, antibacterial test; type: cell-based; set-up: key to Minimum inhibitory concentration (MIC): –: no inhibition observed under test conditions
Experimental: as §1

[13] = Cytotoxicity, MTT method
Experimental: as §1

[14] = test system: KB 3.1, L929, A549, SK-OV-3, PC-3, A431, and MCF-7 mammalian cell lines; assay: Cytotoxicity, summary over all tested cell lines; type: cell-based; details: seven mammalian cell lines; read-out: IC50 values, range over all tested cell lines
Experimental: as §1

[15] = test system: Co. truncatum and Cu. lunata; set-up: method as in PMID 29677644; details: cited from earlier work
[16] = test system: NCI-H187 and Vero; set-up: method as in PMID 29677644; details: cited from earlier work
[17] = test system: Al. brassicicola, Co. gloeosporioides, Co. truncatum, Cu. lunata and Py. grisea; set-up: method as in PMID 29677644; details: cited from earlier work
[18] = human, A431 squamous cancer cells
[19] = human, KB 3.1 endocervical adenocarcinoma cells
[20] = human, MCF-7 breast cancer cells
[21] = human, PC-3 prostate cancer cells
[22] = human, SK-OV-3 ovary cancer cells

| Compound | Minimum inhibitory concentration (MIC) [1] | MIC [2] [µg/mL] | Minimum inhibitory concentration (MIC) [3] | Minimum inhibitory concentration (MIC) [5] | MIC [6] [µg/mL] | MIC [7] [µg/mL] | MIC [8] [µg/mL] | Minimum inhibitory concentration (MIC) [9] | Minimum inhibitory concentration (MIC) [10] | Minimum inhibitory concentration (MIC) [11] | Minimum inhibitory concentration (MIC) [12] | IC50 [14] [µM] | Minimum inhibitory concentration (MIC) [4] | also measured |
| --- | --- | --- | --- | --- | --- | --- | --- | --- | --- | --- | --- | --- | --- | --- |
| CCCC(=O)O[C@H]1c2cc(C)cc(O)c2C(=O)C2=C(O)[C@H]3C=C[C@]21Cc1cc(O)c2c(c13)O[C@@]1(C(=O)OC)C(=C(O)[C@@H](O)C[C@@H]1O)C2=O [Compound 4, Xanthoquinodin B12] | – | 66.7 (≈ 101 µM) | – | – | 0.8 (≈ 1.21 µM) | 2.1 (≈ 3.18 µM) | 2.1 (≈ 3.18 µM) | – | – | – | – | 1.03 to 18.6 |  | MIC ([4]; read-out: Minimum inhibitory concentration (MIC)): 66.7 µg/mL (≈ 101 µM); IC50 ([13]; mouse): 13.5 µM |
| ketoxanthoquinodin A6 |  |  |  |  |  |  |  |  |  |  |  |  |  | Antifungal effects (in words) [15]: significant antifungal effects |
| CCCC(=O)O[C@H]1c2cc(C)cc(O)c2C(=O)C2=C(O)[C@H]3C=C[C@]21Cc1cc(O)c2c(c13)O[C@@](C(=O)OC)([C@@H](O)CCC(=O)O)CC2=O [Compound 7, Xanthoquinodin B15] | – | 66.7 (≈ 101 µM) | – | – | 4.2 (≈ 6.34 µM) | 4.2 (≈ 6.34 µM) | 8.3 (≈ 12.5 µM) | – | – | – | – | 1.03 to 18.6 | – | IC50 [13, 18]: 2.87 µM; IC50 ([13]; human, A549 lung cancer cells): 11.5 µM; IC50 [13, 19]: 3.47 µM; IC50 [13, 20]: 1.03 µM; IC50 [13, 21]: 4.98 µM; IC50 [13, 22]: 3.93 µM; IC50 ([13]; mouse, L929 fibroblasts): 9.97 µM |
| COC(=O)[C@@]12Oc3c(c(O)cc4c3[C@@H]3C=C[C@]5(C4)C(=C(O)c4c(O)cc(C)cc4[C@@H]5O)C3=O)C(=O)C1=C(O)CC[C@@H]2O [xanthoquinodin B5] |  |  |  |  |  |  |  |  |  |  |  |  |  | Cytotoxicity compared with other xanthoquinodins (in words) [16]: stronger cytotoxicity; Antifungal effects (in words) [17]: significant antifungal effects |
| CCCC(=O)O[C@H]1c2cc(C)cc(O)c2C(=O)C2=C(O)[C@H]3C=C[C@]21Cc1cc(O)c2c(c13)O[C@@](C(=O)OC)([C@@H]1CCC(=O)O1)CC2=O [Compound 6, Xanthoquinodin B14] | – | 66.7 (≈ 103 µM) | – | – | 4.2 (≈ 6.52 µM) | 8.3 (≈ 12.9 µM) | 4.2 (≈ 6.52 µM) | – | – | – | – | 1.03 to 18.6 | – | IC50 [13, 18]: 3.11 µM; IC50 ([13]; human, A549 lung cancer cells): 18.6 µM; IC50 [13, 19]: 3.42 µM; IC50 [13, 20]: 1.1 µM; IC50 [13, 21]: 5.43 µM; IC50 [13, 22]: 3.88 µM; IC50 ([13]; mouse, L929 fibroblasts): 10.6 µM |
| COC(=O)[C@]12Oc3cc4c(c(O)c3C(=O)C1=C(O)CC[C@@H]2O)[C@@H]1C=C[C@]2(C4)C(=C(O)c3c(O)cc(C)cc3[C@@H]2O)C1=O [xanthoquinodin A6] |  |  |  |  |  |  |  |  |  |  |  |  |  | Cytotoxicity compared with other xanthoquinodins (in words) [16]: stronger cytotoxicity; Antifungal effects (in words) [15]: significant antifungal effects |
| COC(=O)[C@]12Oc3c(c(O)cc4c3[C@@H]3C=C[C@]5(C4)C(=C3O)C(=O)c3c(O)cc(C)cc3[C@@H]5OC(C)=O)C(=O)C1=C(O)CC[C@@H]2O [Compound 5, Xanthoquinodin B13] | – | 66.7 (≈ 108 µM) | – | – | 0.2 (≈ 0.324 µM) | 2.1 (≈ 3.41 µM) | 8.3 (≈ 13.5 µM) | – | – | – | – | 0.03 to 1.46 | – | IC50 ([13]; mouse): 1.12 µM |
